Experimental data published in ChEMBL document CHEMBL4665716, “Identification of a novel series of azabenzimidazole-derived inhibitors of spleen tyrosine kinase” (Bioorg Med Chem Lett, 2020).
Converted amounts (≈) assume the structure as drawn.

Experiments:
[1] = molecular target: Tyrosine-protein kinase SYK (Homo sapiens, UniProt P43405); assay: Inhibition of SYK (unknown origin)
SUD4 = assay: Growth inhibition of human SU-DHL-4 cells; type: functional
[2] = molecular target: Voltage-gated inwardly rectifying potassium channel KCNH2 (Homo sapiens, UniProt Q12809); assay: Inhibition of human ERG
Voltage-gated inwardly rectifying potassium channel KCNH2, sequence (Q12809 whole entry): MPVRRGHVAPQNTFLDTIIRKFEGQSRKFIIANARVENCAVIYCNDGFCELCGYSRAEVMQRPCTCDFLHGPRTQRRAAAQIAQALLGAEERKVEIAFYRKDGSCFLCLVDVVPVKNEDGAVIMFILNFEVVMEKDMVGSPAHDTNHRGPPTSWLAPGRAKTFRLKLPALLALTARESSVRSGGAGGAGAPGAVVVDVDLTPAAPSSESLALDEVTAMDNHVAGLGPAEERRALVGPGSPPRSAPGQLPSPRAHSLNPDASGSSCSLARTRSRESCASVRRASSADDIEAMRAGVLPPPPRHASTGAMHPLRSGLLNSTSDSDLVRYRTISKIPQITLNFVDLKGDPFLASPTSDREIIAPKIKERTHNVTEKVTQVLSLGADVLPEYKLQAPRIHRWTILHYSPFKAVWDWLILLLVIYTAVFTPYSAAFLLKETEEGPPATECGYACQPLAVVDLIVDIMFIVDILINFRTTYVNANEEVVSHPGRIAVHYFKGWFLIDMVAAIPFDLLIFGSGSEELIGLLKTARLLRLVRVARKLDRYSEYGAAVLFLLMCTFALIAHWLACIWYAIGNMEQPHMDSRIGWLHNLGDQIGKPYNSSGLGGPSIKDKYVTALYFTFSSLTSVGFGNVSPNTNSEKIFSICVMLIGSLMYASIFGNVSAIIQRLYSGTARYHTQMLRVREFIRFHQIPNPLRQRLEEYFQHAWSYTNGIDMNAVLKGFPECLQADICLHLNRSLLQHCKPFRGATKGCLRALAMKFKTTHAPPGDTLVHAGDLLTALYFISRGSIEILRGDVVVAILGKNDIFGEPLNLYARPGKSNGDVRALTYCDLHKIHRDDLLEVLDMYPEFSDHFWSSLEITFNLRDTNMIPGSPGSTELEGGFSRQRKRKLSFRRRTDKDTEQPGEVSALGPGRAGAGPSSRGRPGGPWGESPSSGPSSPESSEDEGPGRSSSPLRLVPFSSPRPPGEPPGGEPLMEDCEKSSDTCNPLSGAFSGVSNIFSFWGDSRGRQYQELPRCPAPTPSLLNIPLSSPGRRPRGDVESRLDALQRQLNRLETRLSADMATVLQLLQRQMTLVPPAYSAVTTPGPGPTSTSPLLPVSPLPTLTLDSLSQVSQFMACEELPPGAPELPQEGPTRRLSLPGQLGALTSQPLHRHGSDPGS

[3] = Apparent permeability in human Caco-2 cells; type: ADME, cell-based
[4] = Intrinsic clearance in rat hepatocytes assessed per 10^6 cells; type: ADME, cell-based, Hepatocyte; conditions: read-out: CLH
[5] = Solubility of compound; type: physicochemical
[6] = Intrinsic clearance in human liver microsome; type: ADME; conditions: microsomes
[7] = Lipophilicity, logD of compound; type: physicochemical; conditions: octanol/water

| Structure (SMILES) | IC50 [1] [nM] | GI50 (SUD4) [nM] | IC50 [2] [nM] | further results |
| --- | --- | --- | --- | --- |
| COc1ccc(-c2nc3c(NCC4CCNCC4)c(Cl)cnc3[nH]2)cc1 | 5 | – | – | – |
| Cn1ccc2c(-c3nc4c(-n5cc(N[C@@H]6CCOC[C@@H]6N)cn5)ccnc4[nH]3)cccc21 | – | 210 | – | – |
| CN(C)Cc1cnn(-c2ccnc3[nH]c(-c4cn(C)c5ccc(C(=O)N(C)C)cc45)nc23)c1 | 1.2 | 1700 | > 40000 | – |
| Cn1ccc2c(-c3nc4c(-n5cc(CN6CC[C@H](O)C6)cn5)ccnc4[nH]3)cccc21 | 1 | 1800 | > 40000 | – |
| CN(C)Cc1cc(-c2ccnc3[nH]c(-c4cccc5c4ccn5C)nc23)nn1C | 2.8 | 1000 | 13000 | – |
| CNC(=O)c1cc2c(-c3nc4c(-n5cc(CN(C)C)cn5)ccnc4[nH]3)cn(C)c2cn1 | 0.18 | 870 | > 40000 | – |
| CNC(=O)c1ccc2c(c1)c(-c1nc3c(-n4cc(CN(C)C)cn4)ccnc3[nH]1)cn2C | 0.15 | 210 | – | – |
| Clc1cnc2[nH]c(-c3ccccc3)nc2c1OCC1CCNCC1 | 30 | – | – | – |
| Cc1nnc(-c2ncn3ccc(Nc4nccc(-c5cc(CN(C)C)n(C)n5)n4)cc23)o1 | 0.21 | – | – | – |
| Cc1nn(-c2ccnc3[nH]c(-c4cccc5c4ccn5C)nc23)cc1CN1CC[C@H](O)C1 | 4.6 | 1200 | 27000 | – |
| Cc1nnc(-c2ccc3c(c2)c(-c2nc4c(-n5cc(CN(C)C)c(C)n5)ccnc4[nH]2)cn3C)o1 | 0.098 | 290 | – | – |
| CN(C)Cc1cnn(-c2ccnc3[nH]c(-c4cn(C)c5ccc(S(C)(=O)=O)cc45)nc23)c1 | 0.077 | 440 | – | – |
| CC(=O)Nc1ccc2c(c1)c(-c1nc3c(-n4cc(CN(C)C)c(C)n4)ccnc3[nH]1)cn2C | 0.17 | 200 | – | – |
| Cn1ccc2c(-c3nc4c(-n5cc(CN6CC[C@@H](O)C6)cn5)ccnc4[nH]3)cccc21 | 0.48 | 1200 | > 33000 | – |
| CN(c1cnn(-c2ccnc3[nH]c(-c4cccc5c4ccn5C)nc23)c1)[C@@H]1CCOC[C@@H]1N | 5.5 | 1100 | 9200 | – |
| Cn1ccc2c(-c3nc4c(OCC5CCNCC5)c(Cl)cnc4[nH]3)cccc21 | 3.51 | – | – | – |
| Cc1nn(-c2ccnc3[nH]c(-c4cccc5c4ccn5C)nc23)cc1CN1CC[C@@H](O)C1 | 0.91 | 1100 | 31000 | Papp [3]: 0.63 ×10⁻⁶ cm/s; hepatocyte CLint [4]: 40 µL/min/1e6 cells; solubility [5]: < 20 µM; CLint [6]: 63 µL/min/mg; logD [7]: 2.9 |
| Cc1nn(-c2ccnc3[nH]c(-c4cccc5c4ccn5C)nc23)cc1CN(C)C | 0.83 | 770 | 2600 | hepatocyte CLint [4]: 127 µL/min/1e6 cells; solubility [5]: 89 µM (≈ 34.3 µg/mL); CLint [6]: 37 µL/min/mg; logD [7]: 2.8 |
